From US20260265199A1, “CRYSTALLINE FORMS OF (R)-2-AMINO-5-(4-(2-(3,5-DIFLUOROPHENYL)-2-HYDROXYACETAMIDO)-2-METHYLPHENYL)-N-ISOPROPYLNICOTINAMIDE AND METHODS FOR USING THE SAME” (HIBERCELL, INC., priority 2023, published 2026)
“Also recorded” adds a separate entry of the source. Where two headings read alike, the source gives them in different places.

Columns and labels:
Assay type in all cases: physicochemical
[1] = Dynamic vapor sorption (5% to 95% RH, Example 26 method)
Protocol: Automated vapor sorption (VS) data were collected on a Surface Measurement System DVS Intrinsic instrument, or a VTI SGA-100 instrument. Samples were not dried prior to analysis. Sorption and desorption data were collected over a range from 5% to 95% RH at 10% RH increments under a nitrogen purge. The equilibrium criterion used for analysis was less than 0.0100% weight change in 5 minutes with a maximum equilibration time of 3 hours. Data were not corrected for the initial moisture content of the samples.

[2] = Relative humidity stressing of Form D; conditions: ambient
[3] = Solubility study of Form A of the compound of formula (I) in solvents (aliquot addition, visual); conditions: thermodynamic from solid, room temperature, read-out: Approximate Solubility
Protocol: A solubility study of Form A in various solvent systems was conducted according to the following protocol: aliquots of the test solvent systems were added to weighed samples of Form A, prepared according to Example 27, at room temperature. The resulting mixtures were sonicated between solvent additions to facilitate dissolution. Complete dissolution of the test material was determined visually. The solubility was estimated based on the total solvent used to provide complete dissolution.

[4] = Water activity study of Form A of the compound of formula (I); conditions: for Result (XRPD of solids): ambient; for Solid form (XRPD) after storage in solvent mixture: ambient conditions
Protocol: The water activity study was conducted using the following protocol: solutions were prepared by adding a sufficient amount of Form A, prepared according to Example 27, to a given solvent mixture such that excess solids were present. The mixture was then agitated for a predetermined period of time (Table 31) in a sealed vial under ambient conditions. After agitation, the solids were isolated for analysis and characterized using XRPD.

SMILES: Cc1cc(NC(=O)[C@H](O)c2cc(F)cc(F)c2)ccc1-c1cnc(N)c(C(=O)NC(C)C)c1 [Form D, (R)-2-amino-5-(4-(2-(3,5-difluorophenyl)-2-hydroxyacetamido)-2-methylphenyl)-N-isopropylnicotinamide]
- Solid form recovered from the DVS experiment (XRPD) [1]: remained as Form D
- Weight gain and loss through the sorption/desorption cycle (DVS) ([1]; 5 to 95% RH): approximately 1.9%
- Hygroscopicity (DVS) ([1]; from 5 to 95% RH): limited hygroscopicity
- Observation ([2]; 75% RH, 4 days): Free flowing
- Result (XRPD form) ([2]; 75% RH, 4 days): remained physically stable; also recorded: Form D
- Observation ([2]; 97% RH, 20 days): Free flowing
- Result (XRPD form) ([2]; 97% RH, 20 days): no phase changed had occurred; also recorded: remained physically stable; also recorded: Form D

SMILES: Cc1cc(NC(=O)[C@H](O)c2cc(F)cc(F)c2)ccc1-c1cnc(N)c(C(=O)NC(C)C)c1 [Form A of the compound of formula (I), (R)-2-amino-5-(4-(2-(3,5-difluorophenyl)-2-hydroxyacetamido)-2-methylphenyl)-N-isopropylnicotinamide]
- solubility ([3]; organic solvent or mixture, acetone): > 115 mg/mL
- solubility ([3]; organic solvent or mixture, acetonitrile): 12 mg/mL
- solubility ([3]; organic solvent or mixture, chloroform): < 3 mg/mL
- solubility ([3]; organic solvent or mixture, diethyl ether): < 2 mg/mL
- solubility ([3]; organic solvent or mixture, ethanol): 49 mg/mL
- solubility ([3]; organic solvent or mixture, ethyl acetate): 26 mg/mL
- solubility ([3]; organic solvent or mixture, heptane): < 3 mg/mL
- solubility ([3]; organic solvent or mixture, isopropyl alcohol): 14 mg/mL
- solubility ([3]; organic solvent or mixture, methanol): 103 mg/mL
- solubility ([3]; organic solvent or mixture, tetrahydrofuran): > 150 mg/mL
- solubility ([3]; organic solvent or mixture, toluene): < 4 mg/mL
- solubility ([3]; water): < 3 mg/mL
- Result (XRPD of solids) ([4]; IPA/water 90:10 v/v, 0.67 aw, 27 days): Form H
- Result (XRPD of solids) ([4]; MeCN/water 92:8 v/v, 0.82 aw, 4 days): Form C
- Solid form (XRPD) after storage in solvent mixture ([4]; acetonitrile/water (92:8 v/v), four days): Form C
- Solid form (XRPD) after storage in solvent mixture ([4]; isopropanol/water (90:10 v/v), 27 days): Form H
- Solid form (XRPD) after storage in solvent mixture ([4]; isopropanol/water (94:6 v/v), four days): mixture of Form A and Form H
- Result (XRPD of solids) ([4]; water/acetone 80:20 v/v, 0.96 aw, 4 days): Form A*
- Solid form (XRPD) after storage in solvent mixture ([4]; water/acetone (80:20 v/v), four days): Form A
